The values below come from article PMC7311950, “Potent Tetrahydroquinolone Eliminates Apicomplexan Parasites” (Frontiers in Cellular and Infection Microbiology, 2020).

The subject of assay [1] is P. falciparum strains D6, TM91-C235, W2, C2B. Nature of the assay: Malaria SYBR Green I-Based Fluorescence (MSF) assay. It counts as cell-based. The conditions noted are these: Plasmodium falciparum. As for the experimental part: Malaria potency testing in vitro was performed using 4 different P. falciparum strains, D6, TM91-C235, W2, and C2B. The D6 strain is a drug sensitive strain from Sierra Leone, the TM91-C235 strain is a multi-drug resistant strain from Thailand, the W2 strain is a chloroquine resistant strain from Thailand, and the C2B strain is a multi-drug resistant strain with resistance against atovaquone. These assays were performed as described below.
Compound activity against P. falciparum, was tested using the Malaria SYBR Green I–Based Fluorescence (MSF) Assay. The complete method for performing this microtiter assay is described in previous work published by Plouffe et al. ([2008]) and Johnson et al. ([2007]). In brief, this assay uses the binding of the fluorescent dye SYBR Green I to malaria DNA to measure parasite growth in the presence of 2-fold diluted experimental or control. The relative fluorescence of the intercalated SYBR Green I proportional to parasite growth, and inhibitory compounds will result in lower observed fluorescence compared to untreated parasites.

The subject of assay [2] is T. gondii mitochondrial membrane potential. Nature of the assay: T. gondii mitochondrial membrane potential, safranine method. It counts as cell-based, Toxoplasma gondii. The conditions noted are these: permeabilized T. gondii tachyzoites, safranin O. The method, then: The mitochondrial membrane potential was measured by the safranine method according to Vercesi et al. ([1998]). Freshly egressed T. gondii tachyzoites were filtered and washed twice with intracellular buffer (125 mM sucrose, 65 mM KCl, 10 mM HEPES-KOH buffer, pH 7.2, 1 mM MgCl2, and 2.5 mM potassium phosphate). After washing, the parasites were resuspended in the same buffer at 10^9/mL. An aliquot of 50 μL of this suspension was added to a cuvette containing Safranin O, 2.5 μM and Succinate 1 mM in final volume of 2 mL of the intracellular buffer. The fluorescence was measured with a Hitachi 7000 spectrofluorometer with settings Ex. 495/Em. 586. Once the baseline fluorescence was stable, 30 μM digitonin was added to permeabilize the parasites. Eighty five seconds after permeabilization, the THQ derivatives, dissolved in DMSO, were added. Five micromolars of FCCP (Carbonyl cyanide-4-(trifluoromethoxy) phenylhydrazone) was used as an uncoupler reference for calculations and its effect was considered 100%. We used similar conditions for measuring the mitochondrial membrane potential of mammalian cells with the following changes: the mammalian cells were resuspended at 10^8/mL. We also used 50 μL of this suspension for each experiment in a total volume of 2 mL. The substrate used for mammalian cells was 5 mM glutamate and 5 mM malate. A higher concentration of digitonin (50 μM) was used to permeabilize the mammalian cells. The compounds were added at ~400 s after permeabilization. Each experiment was repeated at least three times in duplicates. Statistical analysis, unpaired student t-test, was performed using GraphPad Prism 8.0 (GraphPad Software, Inc., San Diego, CA).
Mitochondrial membrane potential measurements were performed with permeabilized T. gondii tachyzoites in suspension using safranin O, which loads into polarized membranes [see section Materials and Methods in the Supplemental Materials (Vercesi et al., [1998])]. T. gondii tachyzoites were permeabilized with digitonin to allow the mitochondrial substrate succinate to cross the membrane and energize the mitochondrion. The fluorescence of safranin O, which loads into energized mitochondria was used to measure the membrane potential. The energized state of the mitochondrion is observed by a decrease in fluorescence (Figures 3A,C,E). Trifluoromethoxy carbonylcyanide phenylhydrazone (FCCP) was used to depolarize the membrane, which is observed as an increase in fluorescence (Figures 3A,B). JAG21 depolarized the membrane potential even at concentrations as low as 2 nM (Figures 3C,D). JAG21 and Atovaquone had similar effects on the mitochondrial membrane potential (Figure 3D). […]

Assay [3] has as its system T. gondii RH-YFP tachyzoites. The assay is described as follows: In vitro challenge assay, RH strain YFP tachyzoites in HFF. It counts as cell-based. The conditions noted are these: Toxoplasma gondii.
Where [4] appears, read: C2B, multi-drug resistant strain with resistance against atovaquone, read-out: SYBR Green C2B IC50.
Setting [5] is: D6, drug sensitive strain, read-out: SYBR Green D6 IC50.
Where [6] appears, read: TM91-C235, multi-drug resistant strain, read-out: SYBR Green C235 IC50.
Setting [7] is: W2, chloroquine resistant strain, read-out: SYBR Green W2 IC50.
[8] abbreviates: RH-YFP tachyzoites in HFF, Figure 1A, read-out: Tachy IC50.
Where [9] appears, read: T. gondii tachyzoites, initial library, read-out: IC50.

SMILES strings stand for the structures. Where two headings read alike, the source gives them in different places.

In the case of `Cc1[nH]c2c(c(=O)c1-c1ccc(Oc3ccc(Cl)cc3)cc1)CCCC2` [JAG50], the 50% inhibitory concentration (IC50) (in general, the concentration at which inhibition is half-maximal) was 36.4 nM in assay [1] (setting [4]); 46.6 nM in assay [1] (setting [5]); 69.1 nM in assay [1] (setting [6]); 31.4 nM in assay [1] (setting [7]); 85 nM in assay [3] (setting [8]); 33 nM in assay [3] (setting [9]). The “concentration that depolarized the mitochondrial membrane potential” value in assay [2] is on record as ≥ 200 nM.
As for `Cc1[nH]c2c(c(=O)c1-c1ccc(Oc3ccc(OC(F)(F)F)cc3)cc1)CCCC2` [JAG21, 2-Methyl-3-(4-(4-(Trifluoromethoxy)Phenoxy)Phenyl)-5,6,7,8-Tetrahydroquinolin-4-One], the IC50 in assay [1] (setting [4]) is 40.4 nM; in assay [1] (D6, TM91-C235, W2 and C2B, range over strains, read-out: IC50 values against drug sensitive and resistant strains), 14 to 61 nM; in assay [1] (setting [5]), 14.3 nM; in assay [1] (setting [6]), 61.6 nM; in assay [1] (setting [7]), 55.2 nM; in assay [3] (setting [8]) it was 120 nM. For the same molecule, the concentration for half-maximal inhibition (IC50) in assay [3] (setting [9]) came out at 55 nM. The IC90 (as a rule, the point of the concentration-response curve where the effect stands at 90%) is < 50 nM in assay [1] (supplement summary, read-out: IC90, drug resistant Plasmodium falciparum in vitro) and < 50 nM in assay [3] (supplement summary). In addition, the “concentration that depolarized the mitochondrial membrane potential” value in assay [2] is reported as ≤ 2 nM.
